pIC50: −log10 of the molar value.

In patent US20230026271A1, “Piperazine Compounds for Inhibiting CPS1” (Eisai R&D Management Co., Ltd., priority 2019, published 2023) one finds IC50 data, which are given here for 6 compounds.

The first assay addresses T1, CPS1 (Homo sapiens, UniProt P31327).
T1 construct: The full length, human CPS1 gene was cloned into pFastBac HTA; His6 (from the pFastBac HTA vector); made in house; host or cells: SF21 insect cells (baculovirus, Bac-to-bac)
T1 sequence (P31327 39-1500): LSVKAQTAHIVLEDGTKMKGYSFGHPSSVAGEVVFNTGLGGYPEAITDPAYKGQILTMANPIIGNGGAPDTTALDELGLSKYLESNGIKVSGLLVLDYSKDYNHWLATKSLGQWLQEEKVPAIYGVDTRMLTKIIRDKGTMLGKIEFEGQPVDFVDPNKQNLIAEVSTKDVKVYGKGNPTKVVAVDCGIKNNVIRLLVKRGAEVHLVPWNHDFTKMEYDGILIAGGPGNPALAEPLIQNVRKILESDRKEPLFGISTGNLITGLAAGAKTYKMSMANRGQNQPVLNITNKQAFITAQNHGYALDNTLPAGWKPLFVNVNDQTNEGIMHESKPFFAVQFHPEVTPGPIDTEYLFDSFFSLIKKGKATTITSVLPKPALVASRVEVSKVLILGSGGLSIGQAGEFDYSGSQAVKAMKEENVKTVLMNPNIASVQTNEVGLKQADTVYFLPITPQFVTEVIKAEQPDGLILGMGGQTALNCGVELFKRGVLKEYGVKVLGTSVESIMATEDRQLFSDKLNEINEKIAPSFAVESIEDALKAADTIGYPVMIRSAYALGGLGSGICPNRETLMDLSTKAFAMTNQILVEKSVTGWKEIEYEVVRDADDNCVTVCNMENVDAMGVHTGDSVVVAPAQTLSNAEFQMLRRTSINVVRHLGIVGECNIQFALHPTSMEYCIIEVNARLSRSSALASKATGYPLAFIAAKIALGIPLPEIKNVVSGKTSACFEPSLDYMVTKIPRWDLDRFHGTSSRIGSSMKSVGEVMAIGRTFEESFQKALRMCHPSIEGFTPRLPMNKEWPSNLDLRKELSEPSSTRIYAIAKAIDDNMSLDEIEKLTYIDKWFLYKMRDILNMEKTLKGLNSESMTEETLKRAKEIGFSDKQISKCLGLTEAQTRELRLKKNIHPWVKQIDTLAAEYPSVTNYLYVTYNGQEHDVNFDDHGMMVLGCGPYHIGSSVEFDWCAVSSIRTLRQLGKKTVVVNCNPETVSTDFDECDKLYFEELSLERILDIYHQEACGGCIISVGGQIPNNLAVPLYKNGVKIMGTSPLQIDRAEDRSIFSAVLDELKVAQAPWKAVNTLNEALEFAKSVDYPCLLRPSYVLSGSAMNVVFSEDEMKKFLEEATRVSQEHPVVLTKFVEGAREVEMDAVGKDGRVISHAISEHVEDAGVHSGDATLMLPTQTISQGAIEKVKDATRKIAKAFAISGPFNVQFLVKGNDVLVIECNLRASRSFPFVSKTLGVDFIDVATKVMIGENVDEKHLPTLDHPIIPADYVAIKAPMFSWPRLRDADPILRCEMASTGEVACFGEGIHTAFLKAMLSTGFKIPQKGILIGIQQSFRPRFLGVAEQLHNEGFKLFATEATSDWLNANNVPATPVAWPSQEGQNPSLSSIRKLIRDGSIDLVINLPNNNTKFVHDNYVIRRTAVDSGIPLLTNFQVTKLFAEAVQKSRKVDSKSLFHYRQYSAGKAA
Description: ADP-Glo endpoint assay measuring the ATPase activity of CPS1. As to conditions: geometric mean of a minimum of two values; 50 nM CPS1, 10 μM ATP, 0.2 mM NAG, 60 min at room temperature; read-out: ADPGlo IC50. The class given is biochemical. An outline of the steps:
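Full-length human His-tagged CPS1 from SF21 insect cells, 50 nM, preincubated 20 min with compound in pH 7.0 HEPES buffer containing KHCO3, (NH4)2SO3, MgCl2 and 0.2 mM NAG. Reaction started with 10 μM ATP, 60 min at room temperature; ADP formed detected by ADP-Glo luminescence.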
For orientation: ADP-Glo first removes unused ATP, then detects ADP through luciferase.
On to `COc1ccc(C(=O)N2[C@H](C)CN(C(=O)c3cc(NC(C)=O)ccc3F)C[C@H]2C)c(F)c1` [Compound 103, N-(4-fluoro-3-((3R,5R)-4-(2-fluoro-4-methoxybenzoyl)-3,5-dimethylpiperazine-1-carbonyl)phenyl)acetamide], for which the pIC50 is below 4.18.
Still for that read-out and setting: for `COc1ccc(C(=O)N2C[C@@H](C)N(C(=O)c3c[nH]c4ccc(O)cc34)[C@H](C)C2)c(F)c1` [Compound 104, ((2R,6R)-4-(2-fluoro-4-methoxybenzoyl)-2,6-dimethylpiperazin-1-yl)(5-hydroxy-1H-indol-3-yl)methanone] the value was below 4.18; for `COc1ccc(C(=O)N2C[C@@H](C)N(C(=O)c3ccc(OC)cc3)[C@H](C)C2)cc1` [Compound 105, ((2R,6R)-2,6-dimethylpiperazine-1,4-diyl)bis((4-methoxyphenyl)methanone)], 5.50; for `COc1ccc(C(=O)N2C[C@@H](C)N(C(=O)/C=C/c3ccc(O)cc3)[C@H](C)C2)c(F)c1` [Compound 106, (E)-1-((2R,6R)-4-(2-fluoro-4-methoxybenzoyl)-2,6-dimethylpiperazin-1-yl)-3-(4-hydroxypheny)prop-2-en-1-one], 5.37.
The same measure, in the same setting: then `COc1ccc(C(=O)N2[C@H](C)CN(C(=O)c3cnc(N)s3)C[C@H]2C)c(F)c1` [Compound 107, (2-aminothiazol-5-yl)((3R,5R)-4-(2-fluoro-4-methoxybenzoyl)-3,5-dimethylpiperazin-1-yl)methanone], with 5.19.

The target in a further assay is T1, CPS1. Description: Assay 2 - Transcreener ADP FP assay (ADP formation from CPS1). The class given is biochemical. Conditions: 10 nM CPS1, varying amounts of ATP, 60 min, fluorescence polarization. How it is done: CPS1 was expressed and purified from SF21 insect cells. The full length, human CPS1 gene was cloned into pFastBac HTA and baculovirus was generated using the Bac-to-bac expression system from Invitrogen. P3 virus was used to infect SF21 insect cells at a density of 1.5E6 cells/mL at an MOI of 2. Cells were harvested by centrifugation after 60 hrs and the cell pellet resuspended in lysis buffer (50 mM glycyl glycine pH 7.4, 20 mM KCl, 1 mM TCEP, 10% glycerol and 20 mM imidazole with Roche protease inhibitor tablet) before being lysed with 40 strokes of a Dounce homogenizer on ice. The insoluble fraction of the lysate was then cleared by centrifugation at 30,000 rpm for 30 min. 40 mL of supernatant was mixed with 2 mL of Ni NTA beads for 45 min at 4° C. in a 50 mL conical tube.
The beads were washed with 40 mL of wash buffer (50 mM glycyl glycine pH 7.4, 500 mM NaCl, 1 mM TCEP, 10% glycerol and 50 mM imidazole) by centrifugation and resuspension of the beads three times. Bound CPS1 protein was eluted in 6 mL of elution buffer (50 mM glycyl glycine pH 7.4, 500 mM NaCl, 1 mM TCEP, 10% glycerol and 250 mM imidazole) three times. Elution fractions were combined and concentrated using an Amicon Ultra centrifugation filter with a 10,000 molecular weight cut off. […]
ADP formation from CPS1 was measured in an endpoint assay using the Transcreener ADP FP kit from BellBbrook (Cat #3010-1K).
For the compound `COc1ccc(C(=O)N2[C@H](C)CN(C(=O)c3cc(OC)ccc3F)C[C@@H]2C)c(F)c1` [Compound 108, ((3S,5R)-4-(2-fluoro-4-methoxybenzoyl)-3,5-dimethylpiperazin-1-yl)(2-fluoro-5-methoxyphenyl)methanone], the pIC50 is below 4.18.

In general, pIC50 refers to the IC50 on a negative log10 scale, so that one unit is a factor of ten.
